The values that follow come from patent US9029391B2 (priority 2011, dated 2015).

The structures appear in SMILES notation.

For one assay, the system named is HIV. Description: MT4 Assay (anti-HIV activity). It counts as cell-based. The conditions noted are these: Human immunodeficiency virus 1, 96 h, read-out: HIV MT4 Assay IC50, HTLV-1 transformed cell line MT-4, cell titer glo, 10 point dose response curve. Summed up: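 IC50 values were fitted to 10-point dose-response series (3-4-fold dilutions, range >1000-fold), normalized to no-compound control. CellTiter-Glo read-out was taken after 96 hours in HTLV-1-transformed MT-4 cells. Cytotoxicity was measured in parallel under identical conditions.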
Background: In ATP-based viability assays light output follows the ATP content of the culture.
Broadly, the IC50 is the concentration that gives 50% inhibition. Turning to `CC(=O)N1CCOc2ccc(-c3c(C(OC(C)(C)C)C(=O)O)n(C)c(=O)c4ccccc34)c(Cl)c21` (stereo not shown) [Example 116, 2-[4-(4-acetyl-5-chloro-3,4-dihydro-2H-1,4-benzoxazin-6-yl)-2-methyl-1-oxo-1,2-dihydroisoquinolin-3-yl]-2-(tert-butoxy)acetic acid], the IC50 came to 33200 nM.

`Cn1c(C(OC(C)(C)C)C(=O)O)c(-c2ccc3c(c2)NCCO3)c2ccccc2c1=O` (stereo not shown) [Example 82, 2-(tert-butoxy)-2-[4-(3,4-dihydro-2H-1,4-benzoxazin-6-yl)-2-methyl-1-oxo-1,2-dihydroisoquinolin-3-yl]acetic acid]: the IC50 came out at 7400 nM.

As for `Cn1c(C(OC(C)(C)C)C(=O)O)c(-c2ccc3c(c2)CCCO3)c2ccccc2c1=O` (stereo not shown) [Example 39, 2-(tert-butoxy)-2-[4-(3,4-dihydro-2H-1-benzopyran-6-yl)-2-methyl-1-oxo-1,2-dihydroisoquinolin-3-yl]acetic acid], the IC50 is 1880 nM.

As for `Cc1ccccc1-c1c(C(OC(C)(C)C)C(=O)O)n(C)c(=O)c2ccccc12` (stereo not shown) [Example 71, 2-(tert-butoxy)-2-[2-methyl-4-(2-methylphenyl)-1-oxo-1,2-dihydroisoquinolin-3-yl]acetic acid], the half-maximal inhibitory concentration (IC50) was determined as 1450 nM.

`COc1ccccc1-c1c(C(OC(C)(C)C)C(=O)O)n(C)c(=O)c2ccccc12` (stereo not shown) [Example 33, 2-(tert-butoxy)-2-[4-(2-methoxyphenyl)-2-methyl-1-oxo-1,2-dihydroisoquinolin-3-yl]acetic acid]: the IC50 was determined as 21700 nM.

As for `Cn1c(C(OC(C)(C)C)C(=O)O)c(-c2ccccc2)c2ccccc2c1=O` (stereo not shown) [Example 156, [(1,1-dimethylethyl)oxy](2-methyl-1-oxo-4-phenyl-1,2-dihydro-3-isoquinolinyl)acetic acid], the IC50 came to 800 nM.

In the case of `Cc1c(-c2c(C(OC(C)(C)C)C(=O)O)n(C)c(=O)c3cc(OCc4ccccc4)ccc23)ccc2c1CCCO2` (stereo not shown) [Example 88, 2-[7-(benzyloxy)-2-methyl-4-(5-methyl-3,4-dihydro-2H-1-benzopyran-6-yl)-1-oxo-1,2-dihydroisoquinolin-3-yl]-2-(tert-butoxy)acetic acid], the IC50 is 110 nM.

For `Cc1c(-c2c([C@H](OC(C)(C)C)C(=O)O)n(C)c(=O)c3cc(-c4ccoc4)ccc23)cc(F)c2c1CCCO2` (atropisomer, axis not shown; (M)) [Example 194, (2S)(M)-[(1,1-dimethylethyl)oxy][4-(8-fluoro-5-methyl-3,4-dihydro-2H-chromen-6-yl)-7-(3-furanyl)-2-methyl-1-oxo-1,2-dihydro-3-isoquinolinyl]ethanoic acid], the IC50 came to 40 nM.

As for `Cc1c(-c2c(C(OC(C)(C)C)C(=O)O)n(C)c(=O)c3cc(O)ccc23)ccc2c1CCCO2` (stereo not shown) [Example 84, 2-(tert-butoxy)-2-[7-hydroxy-2-methyl-4-(5-methyl-3,4-dihydro-2H-1-benzopyran-6-yl)-1-oxo-1,2-dihydroisoquinolin-3-yl]acetic acid], the IC50 was determined as 26000 nM.

As for `Cc1ccc(-c2c(C(OC(C)(C)C)C(=O)O)n(C)c(=O)c3ccccc23)cc1` (stereo not shown) [Example 7, 2-(tert-butoxy)-2-[2-methyl-4-(4-methylphenyl)-1-oxo-1,2-dihydroisoquinolin-3-yl]acetic acid], the IC50 is 700 nM.

`Cc1c(-c2c([C@H](OC(C)(C)C)C(=O)O)n(C)c(=O)c3cc(OCc4ccccn4)ccc23)cc(F)c2c1CCCO2` [Example 143, (2S)-2-(tert-butoxy)-2-[4-(8-fluoro-5-methyl-3,4-dihydro-2H-1-benzopyran-6-yl)-2-methyl-1-oxo-7-(pyridin-2-ylmethoxy)-1,2-dihydroisoquinolin-3-yl]acetic acid]: the IC50 was found to be 30 nM.

For `Cc1c(-c2c(C(OC(C)(C)C)C(=O)O)n(C)c(=O)c3cc(OCCN4CCCC4)ccc23)ccc2c1CCCO2` (stereo not shown) [Example 117, 2-(tert-butoxy)-2-[2-methyl-4-(5-methyl-3,4-dihydro-2H-1-benzopyran-6-yl)-1-oxo-7-[2-(pyrrolidin-1-yl)ethoxy]-1,2-dihydroisoquinolin-3-yl]acetic acid], the IC50 was determined as 4090 nM.

For the compound `Cc1cc(C)cc(-c2c(C(OC(C)(C)C)C(=O)O)n(C)c(=O)c3ccccc23)c1` (stereo not shown) [Example 10, 2-(tert-butoxy)-2-[4-(3,5-dimethylphenyl)-2-methyl-1-oxo-1,2-dihydroisoquinolin-3-yl]acetic acid], the IC50 stood at 10500 nM.

In the case of `Cn1c(C(OC(C)(C)C)C(=O)O)c(-c2cc(Cl)ccc2Cl)c2ccccc2c1=O` (stereo not shown) [Example 14, 2-(tert-butoxy)-2-[4-(2,5-dichlorophenyl)-2-methyl-1-oxo-1,2-dihydroisoquinolin-3-yl]acetic acid], the IC50 stood at 2570 nM.

With `Cc1occc1-c1ccc2c(-c3cc(F)c4c(c3C)CCCO4)c([C@H](OC(C)(C)C)C(=O)O)n(C)c(=O)c2c1` (atropisomer, axis not shown; (M)) [Example 203, (2S)(M)-[(1,1-dimethylethyl)oxy][4-(8-fluoro-5-methyl-3,4-dihydro-2H-chromen-6-yl)-2-methyl-7-(2-methyl-3-furanyl)-1-oxo-1,2-dihydro-3-isoquinolinyl]ethanoic acid], the IC50 stood at 30 nM.

As for `Cc1c(-c2c([C@H](OC(C)(C)C)C(=O)O)n(C)c(=O)c3cc(Cc4ccccc4)ccc23)cc(F)c2c1CCCO2` (atropisomer, axis not shown; (M)) [Example 175, (2S)(M)-[(1,1-dimethylethyl)oxy][4-(8-fluoro-5-methyl-3,4-dihydro-2H-chromen-6-yl)-2-methyl-1-oxo-7-(phenylmethyl)-1,2-dihydro-3-isoquinolinyl]ethanoic acid], the IC50 turned out to be 70 nM.

As for `Cc1c(-c2c(C(OC(C)(C)C)C(=O)O)n(C)c(=O)c3cc(OCc4ccc(F)cc4)ccc23)cc(F)c2c1CCCO2` (stereo not shown) [Example 145, 2-(tert-butoxy)-2-[4-(8-fluoro-5-methyl-3,4-dihydro-2H-1-benzopyran-6-yl)-7-[(4-fluorophenyl)methoxy]-2-methyl-1-oxo-1,2-dihydroisoquinolin-3-yl]acetic acid], the IC50 was determined as 110 nM.

In the case of `Cn1c(C(OC(C)(C)C)C(=O)O)c(-c2ccc(OC(F)(F)F)cc2)c2ccccc2c1=O` (stereo not shown) [Example 5, 2-(tert-butoxy)-2-{2-methyl-1-oxo-4-[4-(trifluoromethoxy)phenyl]-1,2-dihydroisoquinolin-3-yl}acetic acid], the IC50 was found to be 41700 nM.

`Cc1c(-c2c(C(OC(C)(C)C)C(=O)O)n(C)c(=O)c3cc(OCc4cncnc4)ccc23)ccc2c1CCCO2` (stereo not shown) [Example 137, 2-(tert-butoxy)-2-[2-methyl-4-(5-methyl-3,4-dihydro-2H-1-benzopyran-6-yl)-1-oxo-7-(pyrimidin-5-ylmethoxy)-1,2-dihydroisoquinolin-3-yl]acetic acid]: the half-inhibitory concentration (IC50) came to 1030 nM.

Consider `Cn1c(C(OC(C)(C)C)C(=O)O)c(-c2cccc(C(F)(F)F)c2)c2ccccc2c1=O` (stereo not shown) [Example 13, 2-(tert-butoxy)-2-{2-methyl-1-oxo-4-[3-(trifluoromethyl)phenyl]-1,2-dihydroisoquinolin-3-yl}acetic acid], for which the IC50 came to 23800 nM.

Regarding `Cc1ccc(-c2c([C@H](OC(C)(C)C)C(=O)O)n(C)c(=O)c3ccccc23)cc1C` [Example 3, (S)-2-(tert-butoxy)-2-(4-(3,4-dimethylphenyl)-2-methyl-1-oxo-1,2-dihydroisoquinolin-3-yl)acetic acid], the half-maximal inhibitory concentration (IC50) came to 440 nM.

Take `Cn1c(C(OC(C)(C)C)C(=O)O)c(-c2ccc3c(c2)CCCO3)c2ccc(Cl)cc2c1=O` (stereo not shown) [Example 68, 2-(tert-butoxy)-2-[7-chloro-4-(3,4-dihydro-2H-1-benzopyran-6-yl)-2-methyl-1-oxo-1,2-dihydroisoquinolin-3-yl]acetic acid]: the half-maximal inhibitory concentration (IC50) worked out at 2450 nM.

In the case of `Cc1c(-c2c(C(OC(C)(C)C)C(=O)O)n(C)c(=O)c3cc(C(F)(F)F)ccc23)ccc2c1CCCO2` (stereo not shown) [Example 127, 2-(tert-butoxy)-2-[2-methyl-4-(5-methyl-3,4-dihydro-2H-1-benzopyran-6-yl)-1-oxo-7-(trifluoromethyl)-1,2-dihydroisoquinolin-3-yl]acetic acid], the IC50 amounted to 1140 nM.

In the case of `Cc1ccc(-c2c(C(OC(C)(C)C)C(=O)O)n(C)c(=O)c3cc(CNS(=O)(=O)N(C)C)ccc23)cc1C` (stereo not shown) [Example 188, 2-(tert-butoxy)-2-(4-(3,4-dimethylphenyl)-7-(((N,N-dimethylsulfamoyl)amino)methyl)-2-methyl-1-oxo-1,2-dihydroisoquinolin-3-yl)acetic acid], the half-maximal inhibitory concentration (IC50) was determined as 3700 nM.

In the case of `Cn1c(C(OC(C)(C)C)C(=O)O)c(-c2ccc(OC3CCCCC3)cc2)c2ccccc2c1=O` (stereo not shown) [Example 24, 2-(tert-butoxy)-2-{4-[4-(cyclohexyloxy)phenyl]-2-methyl-1-oxo-1,2-dihydroisoquinolin-3-yl}acetic acid], the IC50 is 25000 nM.

Consider `Cc1c(-c2c(C(OC(C)(C)C)C(=O)O)n(C)c(=O)c3cc(OCc4ccc(F)cn4)ccc23)cc(F)c2c1CCCO2` (stereo not shown) [Example 101, 2-(tert-butoxy)-2-[4-(8-fluoro-5-methyl-3,4-dihydro-2H-1-benzopyran-6-yl)-7-[(5-fluoropyridin-2-yl)methoxy]-2-methyl-1-oxo-1,2-dihydroisoquinolin-3-yl]acetic acid], for which the IC50 is 290 nM.

On to `Cc1ccc(-c2c(C(OC(C)(C)C)C(=O)O)n(C)c(=O)c3ccc(F)cc23)cc1C` (stereo not shown) [Example 56, 2-(tert-butoxy)-2-[4-(3,4-dimethylphenyl)-6-fluoro-2-methyl-1-oxo-1,2-dihydroisoquinolin-3-yl]acetic acid], for which the half-maximal inhibitory concentration (IC50) is 1680 nM.

Still in this assay, the particulars now being: read-out: HIV MT4 Assay IC50; HTLV-1 transformed cell line MT-4; 96 hours; cell titer glo; 10 point dose response curve.
As to `Cc1c(-c2c([C@@H](OC(C)(C)C)C(=O)O)n(C)c(=O)c3ccccc23)cc(F)c2c1CCCO2` [Example 160, (2R)-2-(tert-butoxy)-2-[4-(8-fluoro-5-methyl-3,4-dihydro-2H-1-benzopyran-6-yl)-2-methyl-1-oxo-1,2-dihydroisoquinolin-3-yl]acetic acid], the IC50 is 41600 nM.
